Measured values published in patent US20160009686A1, “VEGFR3 INHIBITORS” (CANCER THERAPEUTICS CRC PTY LIMITED, priority 2012, published 2016).

target: VEGFR3 cytoplasmic domain (Homo sapiens, UniProt P35916); assay: VEGFR3 Biochemical Assay (AlphaScreen); conditions: GST-fusion enzyme, 500 μM ATP, 90 minutes at 30 degree Celsius (modified form in some cases: Hexa-His-fusion enzyme, 1 μM ATP); read-out: IC50
Sequence (P35916 798-1298 isoform P35916-1): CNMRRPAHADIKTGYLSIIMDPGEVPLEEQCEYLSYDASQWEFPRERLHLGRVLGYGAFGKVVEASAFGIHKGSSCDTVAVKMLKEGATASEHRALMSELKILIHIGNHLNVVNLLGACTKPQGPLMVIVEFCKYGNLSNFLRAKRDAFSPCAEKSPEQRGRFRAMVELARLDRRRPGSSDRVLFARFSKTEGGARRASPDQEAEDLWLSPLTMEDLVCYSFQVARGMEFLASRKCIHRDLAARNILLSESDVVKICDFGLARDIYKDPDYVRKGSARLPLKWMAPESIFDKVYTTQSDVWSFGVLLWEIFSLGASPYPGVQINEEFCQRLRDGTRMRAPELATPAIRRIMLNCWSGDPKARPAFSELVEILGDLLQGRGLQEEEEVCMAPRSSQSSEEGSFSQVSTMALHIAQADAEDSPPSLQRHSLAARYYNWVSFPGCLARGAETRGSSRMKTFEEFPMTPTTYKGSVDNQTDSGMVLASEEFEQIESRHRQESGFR

Compound | IC50
Cc1cnc(Nc2cnn(C)c2)nc1CCc1ccccc1C(C)C(N)=O (single isomer, unassigned) [Compound 51-1A, 2-(2-(2-(5-methyl-2-((1-methyl-1H-pyrazol-4-yl)amino)pyrimidin-4-yl)ethyl)phenyl)propanamide] | 25 nM
Cc1cnc(Nc2cnn(C)c2)nc1CCc1ccccc1C(C)C(N)=O (single isomer, unassigned) [Compound 51-2A, 2-(2-(2-(5-methyl-2-((1-methyl-1H-pyrazol-4-yl)amino)pyrimidin-4-yl)ethyl)phenyl)propanamide] | 41 nM
NC(=O)C1(c2ccccc2CCc2nc(Nc3ncco3)ncc2Cl)CC1 [Compound 11, 1-(2-(2-(5-Chloro-2-(oxazol-2-ylamino)pyrimidin-4-yl)ethyl)phenyl)cyclopropanecarboxamide] | 1300 nM
NC(=O)C1(c2ccccc2CCc2nc(Nc3ccnnc3)ncc2Cl)CC1 [Compound 22, 1-(2-(2-(5-Chloro-2-(pyridazin-4-ylamino)pyrimidin-4-yl)ethyl)phenyl)cyclopropanecarboxamide] | 20 nM
Cc1n[nH]cc1Nc1ncc(Cl)c(CCc2ccccc2C2(C(N)=O)CC2)n1 [Compound 25, 1-(2-(2-(5-Chloro-2-((3-methyl-1H-pyrazol-4-yl)amino)pyrimidin-4-yl)ethyl)phenyl)cyclopropanecarboxamide] | 7 nM
Cc1nn(C)cc1Nc1ncc(Cl)c(CCc2ccccc2C2(C(N)=O)CC2)n1 [Compound 26, 1-(2-(2-(5-Chloro-2-((1,3-dimethyl-1H-pyrazol-4-yl)amino)pyrimidin-4-yl)ethyl)phenyl)cyclopropanecarboxamide] | 12 nM
Cc1cc(Nc2ncc(Cl)c(CCc3ccccc3C3(C(N)=O)CC3)n2)n[nH]1 [Compound 27, 1-(2-(2-(5-Chloro-2-((5-methyl-1H-pyrazol-3-yl)amino)pyrimidin-4-yl)ethyl)phenyl)cyclopropanecarboxamide] | 47 nM
Cn1ccc(Nc2ncc(Cl)c(CCc3ccccc3C3(C(N)=O)CC3)n2)n1 [Compound 28, 1-(2-(2-(5-Chloro-2-((1-methyl-1H-pyrazol-3-yl)amino)pyrimidin-4-yl)ethyl)phenyl)cyclopropanecarboxamide] | 268 nM
NC(=O)C1(c2ccccc2CCc2nc(Nc3cnn(CC(F)(F)F)c3)ncc2Cl)CC1 [Compound 29, 1-(2-(2-(5-Chloro-2-((1-(2,2,2-trifluoroethyl)-1H-pyrazol-4-yl)amino)pyrimidin-4-yl)ethyl)phenyl)cyclopropanecarboxamide] | 8 nM
CC(C)n1cc(Nc2ncc(Cl)c(CCc3ccccc3C3(C(N)=O)CC3)n2)cn1 [Compound 30, 1-(2-(2-(5-Chloro-2-((1-isopropyl-1H-pyrazol-4-yl)amino)pyrimidin-4-yl)ethyl)phenyl)cyclopropanecarboxamide] | 4 nM
N#Cc1ccc(Nc2ncc(Cl)c(CCc3ccccc3C3(C(N)=O)CC3)n2)cn1 [Compound 31, 1-(2-(2-(5-Chloro-2-((6-cyanopyridin-3-yl)amino)pyrimidin-4-yl)ethyl)phenyl)cyclopropanecarboxamide] | 48 nM
CC(=O)c1ccc(Nc2ncc(Cl)c(CCc3ccccc3C3(C(N)=O)CC3)n2)cn1 [Compound 32, 1-(2-(2-(2-((6-Acetylpyridin-3-yl)amino)-5-chloropyrimidin-4-yl)ethyl)phenyl)cyclopropanecarboxamide] | 44 nM
CC(N)c1ccc(Nc2ncc(Cl)c(CCc3ccccc3C3(C(N)=O)CC3)n2)cn1 (stereo not drawn) [Compound 33, 1-(2-(2-(2-((6-(1-Aminoethyl)pyridin-3-yl)amino)-5-chloropyrimidin-4-yl)ethyl)phenyl)cyclopropanecarboxamide] | 60 nM
NC(=O)C1(c2ccccc2CCc2nc(Nc3cnn(C(F)F)c3)ncc2Cl)CC1 [Compound 34, 1-(2-(2-(5-Chloro-2-((1-(difluoromethyl)-1H-pyrazol-4-yl)amino)pyrimidin-4-yl)ethyl)phenyl)cyclopropanecarboxamide] | 7 nM
CC(C(N)=O)c1ccccc1CCc1nc(Nc2ccc(C3CCNCC3)nc2)ncc1Cl (stereo not drawn) [Compound 37, 2-(2-(2-(5-Chloro-2-((6-(piperidin-4-yl)pyridin-3-yl)amino)pyrimidin-4-yl)ethyl)phenyl)propanamide] | 31 nM
CC(C(N)=O)c1ccccc1CCc1nc(Nc2ccc(C3CCN(C)CC3)nc2)ncc1Cl (stereo not drawn) [Compound 38, 2-(2-(2-(5-Chloro-2-((6-(1-methylpiperidin-4-yl)pyridin-3-yl)amino)pyrimidin-4-yl)ethyl)phenyl)propanamide] | 32 nM
CC(C(N)=O)c1ccccc1CCc1nc(Nc2cccnc2)ncc1Cl (stereo not drawn) [Compound 39, 2-(2-(2-(5-Chloro-2-(pyridin-3-ylamino)pyrimidin-4-yl)ethyl)phenyl) propanamide] | 44 nM
CC(C(N)=O)c1ccccc1CCc1nc(Nc2cncnc2)ncc1Cl (stereo not drawn) [Compound 40, 2-(2-(2-(5-Chloro-2-(pyrimidin-5-ylamino)pyrimidin-4-yl)ethyl)phenyl) propanamide] | 160 nM
Cc1ccc(Nc2ncc(Cl)c(CCc3ccccc3C(C)C(N)=O)n2)cn1 (stereo not drawn) [Compound 41, 2-(2-(2-(5-chloro-2-(6-methylpyridin-3-ylamino)pyrimidin-4-yl)ethyl)phenyl) propanamide] | 45 nM
CC(C(N)=O)c1ccccc1CCc1nc(Nc2ccnnc2)ncc1Cl (stereo not drawn) [Compound 42, 2-(2-(2-(5-Chloro-2-(pyridazin-4-ylamino)pyrimidin-4-yl)ethyl)phenyl)propanamide] | 154 nM
CC(C(N)=O)c1ccccc1CCc1nc(Nc2cnn(C3CCNCC3)c2)ncc1Cl (stereo not drawn) [Compound 43, 2-(2-(2-(5-Chloro-2-(1-(piperidin-4-yl)-1H-pyrazol-4-ylamino)pyrimidin-4-yl)ethyl)phenyl) propanamide] | 12 nM
Cc1cnc(Nc2cn[nH]c2)nc1CCc1ccccc1C1(C(N)=O)CC1 [Compound 46, 1-(2-(2-(2-((1H-Pyrazol-4-yl)amino)-5-methylpyrimidin-4-yl)ethyl)phenyl)cyclopropanecarboxamide] | 13 nM
Cc1cnc(Nc2cnn(C)c2)nc1CCc1ccccc1C1(C(N)=O)CC1 [Compound 47, 1-(2-(2-(5-Methyl-2-((1-methyl-1H-pyrazol-4-yl)amino)pyrimidin-4-yl)ethyl)phenyl)cyclopropanecarboxamide] | 5 nM
Cc1cnc(Nc2cnn(C3CCN(C)CC3)c2)nc1CCc1ccccc1C1(C(N)=O)CC1 [Compound 48, 1-(2-(2-(5-Methyl-2-((1-(1-methylpiperidin-4-yl)-1H-pyrazol-4-yl)amino)pyrimidin-4-yl)ethyl)phenyl)cyclopropanecarboxamide] | 12 nM
Cc1cnc(Nc2ccc(C3CCN(C)CC3)nc2)nc1CCc1ccccc1C1(C(N)=O)CC1 [Compound 49, 1-(2-(2-(5-Methyl-2-((6-(1-methylpiperidin-4-yl)pyridin-3-yl)amino)pyrimidin-4-yl)ethyl)phenyl)cyclopropanecarboxamide] | 23 nM
Cc1cnc(Nc2ccc(C(C)N)cc2)nc1CCc1ccccc1C1(C(N)=O)CC1 (stereo not drawn) [Compound 50, 1-(2-(2-(2-((4-(1-Aminoethyl)phenyl)amino)-5-methylpyrimidin-4-yl)ethyl)phenyl)cyclopropanecarboxamide] | 46 nM

same assay, conditions: IC50 (nM), GST-fusion enzyme, 500 μM ATP, 90 minutes at 30 degree Celsius (modified form in some cases: Hexa-His-fusion enzyme, 1 μM ATP)

Compound | IC50
NC(=O)C1(c2ccccc2CCc2nc(Nc3ccccc3)ncc2Cl)CC1 [Compound 23, 1-(2-(2-(5-Chloro-2-(phenylamino)pyrimidin-4-yl)ethyl)phenyl)cyclopropanecarboxamide] | 11 nM
